Tests used:
panel of 442 kinases [1] = molecular target: T1, panel of 442 kinases (Homo sapiens, UniProt P36894); assay type: binding; parameters: KINOMEscan: ABL1(F317L)-phosphorylated / KINOMEscan: ABL1(H396P)-nonphosphorylated / KINOMEscan: ABL1(H396P)-phosphorylated / KINOMEscan: ABL1(M351T)-phosphorylated / KINOMEscan: ABL1(T315I)-phosphorylated / KINOMEscan: ABL1-nonphosphorylated / KINOMEscan: ABL1-phosphorylated / KINOMEscan: ACVR2A / KINOMEscan: ACVR2B / KINOMEscan: ADCK3 / KINOMEscan: ADCK4 / KINOMEscan: AKT1 / KINOMEscan: AKT3 / KINOMEscan: ALK / KINOMEscan: ARK5 / KINOMEscan: AURKA / KINOMEscan: AURKC / KINOMEscan: BIKE / KINOMEscan: BMPR1A / KINOMEscan: BMPR1B / KINOMEscan: BMX / KINOMEscan: BRK / KINOMEscan: BRSK1 / KINOMEscan: BRSK2 / KINOMEscan: CAMK1 / KINOMEscan: CAMK1D / KINOMEscan: CAMK1G / KINOMEscan: CAMK2A / KINOMEscan: CAMK2B / KINOMEscan: AAK1 / KINOMEscan: CAMK2D / KINOMEscan: CAMK2G / KINOMEscan: ABL1(F317I)-nonphosphorylated / KINOMEscan: ABL1(F317I)-phosphorylated / KINOMEscan: ABL1(F317L)-nonphosphorylated: unit: % Ctrl; conditions: Compound Concentration 10 µM
T1 construct: purchased KINOMEscan
Text: (§1) We assessed the selectivity of members of this scaffold using the KINOMEscan methodology across a near comprehensive panel of 442 kinases [[18,27]].

panel of 442 kinases [2] = molecular target: T2, panel of 442 kinases (Homo sapiens, UniProt P57078); assay type: binding; parameters: KINOMEscan: ABL1(F317L)-phosphorylated / KINOMEscan: ABL1(H396P)-nonphosphorylated / KINOMEscan: ABL1(H396P)-phosphorylated / KINOMEscan: ABL1(M351T)-phosphorylated / KINOMEscan: ABL1(T315I)-phosphorylated / KINOMEscan: ABL1-nonphosphorylated / KINOMEscan: ABL1-phosphorylated / KINOMEscan: ACVR2A / KINOMEscan: ACVR2B / KINOMEscan: ADCK3 / KINOMEscan: ADCK4 / KINOMEscan: AKT1 / KINOMEscan: AKT3 / KINOMEscan: ALK / KINOMEscan: ARK5 / KINOMEscan: AURKA / KINOMEscan: AURKC / KINOMEscan: BIKE / KINOMEscan: BMPR1A / KINOMEscan: BMPR1B / KINOMEscan: BMX / KINOMEscan: BRK / KINOMEscan: BRSK1 / KINOMEscan: BRSK2 / KINOMEscan: CAMK1 / KINOMEscan: CAMK1D / KINOMEscan: CAMK1G / KINOMEscan: CAMK2A / KINOMEscan: CAMK2B / KINOMEscan: AAK1 / KINOMEscan: CAMK2D / KINOMEscan: CAMK2G / KINOMEscan: ABL1(F317I)-nonphosphorylated / KINOMEscan: ABL1(F317I)-phosphorylated / KINOMEscan: ABL1(F317L)-nonphosphorylated: unit: % Ctrl; conditions: Compound Concentration 10 µM
T2 construct: purchased KINOMEscan
T2 sequence (P57078 1-832): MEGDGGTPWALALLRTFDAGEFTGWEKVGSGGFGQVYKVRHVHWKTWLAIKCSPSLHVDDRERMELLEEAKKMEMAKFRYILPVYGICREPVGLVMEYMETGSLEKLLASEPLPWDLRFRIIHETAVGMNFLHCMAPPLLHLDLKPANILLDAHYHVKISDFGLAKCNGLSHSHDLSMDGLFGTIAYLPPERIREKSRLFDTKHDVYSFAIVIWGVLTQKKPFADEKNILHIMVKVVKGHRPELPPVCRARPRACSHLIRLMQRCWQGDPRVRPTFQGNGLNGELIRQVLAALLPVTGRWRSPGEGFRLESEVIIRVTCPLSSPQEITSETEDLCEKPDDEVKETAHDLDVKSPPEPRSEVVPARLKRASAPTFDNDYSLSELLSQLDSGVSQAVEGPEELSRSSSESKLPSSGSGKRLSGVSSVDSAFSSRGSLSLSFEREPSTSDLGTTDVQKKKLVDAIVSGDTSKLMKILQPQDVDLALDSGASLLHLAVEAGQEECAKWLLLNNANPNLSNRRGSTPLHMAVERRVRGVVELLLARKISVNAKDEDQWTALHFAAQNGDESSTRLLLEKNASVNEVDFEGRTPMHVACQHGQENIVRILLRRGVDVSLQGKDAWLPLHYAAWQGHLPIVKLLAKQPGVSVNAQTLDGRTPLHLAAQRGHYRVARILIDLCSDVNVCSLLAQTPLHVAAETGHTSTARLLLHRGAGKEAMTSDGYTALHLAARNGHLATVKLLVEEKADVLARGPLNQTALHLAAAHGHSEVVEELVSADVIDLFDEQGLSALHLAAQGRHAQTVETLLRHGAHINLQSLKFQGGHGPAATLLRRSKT
Text: as §1

T1 sequence (P36894 24-532): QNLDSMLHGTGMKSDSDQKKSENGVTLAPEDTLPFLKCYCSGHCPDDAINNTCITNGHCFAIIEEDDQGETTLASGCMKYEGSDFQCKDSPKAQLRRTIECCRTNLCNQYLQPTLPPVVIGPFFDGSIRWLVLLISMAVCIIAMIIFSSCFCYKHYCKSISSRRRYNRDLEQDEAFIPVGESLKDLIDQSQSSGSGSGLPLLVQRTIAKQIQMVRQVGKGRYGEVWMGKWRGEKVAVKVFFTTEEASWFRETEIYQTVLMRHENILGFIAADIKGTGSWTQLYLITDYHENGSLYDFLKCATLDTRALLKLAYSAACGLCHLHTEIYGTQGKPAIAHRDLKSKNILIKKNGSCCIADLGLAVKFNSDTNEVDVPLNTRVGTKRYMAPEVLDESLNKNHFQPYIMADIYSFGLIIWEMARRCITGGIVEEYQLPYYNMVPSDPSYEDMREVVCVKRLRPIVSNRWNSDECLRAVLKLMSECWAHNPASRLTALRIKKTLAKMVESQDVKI

Row | SMILES | KINOMEscan: BMPR1A (panel of 442 kinases [1]) | KINOMEscan: RIPK4 (panel of 442 kinases [2])
1 | COc1cc(C(=O)N2CCC(N3CCN(C)CC3)CC2)ccc1Nc1ncc2c(n1)N(C)c1ccccc1C(=O)N2C [15 (LRRK2-IN-1)] | 100 | 74
2 | COc1cc(C(=O)N2CCC(N3CCN(C)CC3)CC2)ccc1Nc1ncc2c(n1)N1CCc3cccc(c31)C(=O)N2C [Compound 24] | 67 | –
3 | COc1cc(C(=O)N2CCC(N3CCN(C)CC3)CC2)ccc1Nc1ncc2c(n1)N(C1CCCC1)c1ccccc1C(=O)N2C [Compound 25, 11-cyclopentyl-2-((2-methoxy-4-(4-(4-methylpiperazin-1-yl)piperidine-1-carbonyl)phenyl)amino)-5-methyl-5H-benzo[e]pyrimido[5,4-b][1,4]diazepin-6(11H)-one] | 96 | 100
4 | CCOc1cc(C(=O)N2CCC(N3CCN(C)CC3)CC2)ccc1Nc1ncc2c(n1)N(C1CCCC1)c1ccccc1C(=O)N2C [Compound 26] | 100 | 100
